Laboratory results reported in US20160045449A1, “Formulations and Methods for Attenuating Respiratory Depression Induced by Opioid Overdose” (Alpharma Pharmaceuticals LLC, priority 2010, published 2016).
Counter-ions that a name gives are not always drawn.

How the values were obtained:
[1] = in comparison to a 15 mg dose of hydrocodone
[2] = after oral administration; cited from earlier work
[3] = cited from earlier work
[4] = Example 4: six-way crossover study, naltrexone (12% w/w) on oxycodone-induced euphoria, with pulse oximetry (SpO2); type: in vivo, human
Text: As a safety component of this study, pulse oximetry was monitored routinely to monitor for signs and symptoms of oxycodone-induced respiratory depression.

[5] = cited from earlier work; remark: listed apart in the source
[6] = patients; versus equivalent dose of morphine; cited from earlier work

**Q.** With `COc1ccc2c3c1O[C@H]1[C@@H](O)C=C[C@H]4[C@@H](C2)N(C)CC[C@@]341` [codeine] as the compound, how does the equianalgesic calculated dose [1] read?
**A.** 90.0 mg

**Q.** With `C[C@H]1[C@H]2Cc3ccc(O)cc3[C@]1(C)CCN2CC1CC1` [cyclazocine] as the compound, how does the duration of action [2] read?
**A.** ~24 h

**Q.** For `COc1ccc2c3c1OC1C(=O)CC[C@H]4[C@@H](C2)N(C)CC[C@]314` (stereo partly shown) [hydrocodone, 4,5-epoxy-3-methoxy-17-methylmorphinan-6-one], which equianalgesic calculated dose [1] is on record?
**A.** 15.0 mg

**Q.** For `CN1CC[C@]23CCCC[C@H]2[C@H]1Cc1ccc(O)cc13` [levorphanol], which equianalgesic calculated dose [1] is on record?
**A.** 1.8 mg

**Q.** Which equianalgesic calculated dose [1] does the source give for `CCC(=O)C(CC(C)N(C)C)(c1ccccc1)c1ccccc1` (stereo not shown) [methadone] here?
**A.** 9.0 mg

**Q.** For `O=C1CC[C@@]2(O)[C@H]3Cc4ccc(O)c5c4[C@@]2(CCN3CC2CC2)[C@H]1O5` [naltrexone HCl, naltrexone hydrochloride], which solubility in water [3] is on record?
**A.** about 100 mg/cc

**Q.** For `O=C1CC[C@@]2(O)[C@H]3Cc4ccc(O)c5c4[C@@]2(CCN3CC2CC2)[C@H]1O5` [naltrexone], which “effect on euphoric effects of oxycodone” value ([4]; oral oxycodone 60 mg + naltrexone 7.2 mg (12%)) is on record?
**A.** abating the euphoric effects of oxycodone 60 mg

**Q.** And the “effect on respiratory depressant effects of oxycodone (SpO2, pulse oximetry)” value ([4]; oral oxycodone 60 mg + naltrexone 7.2 mg (12%) vs oxycodone 60 mg and placebo, opioid-experienced adult subjects)?
**A.** attenuated the respiratory depressant effects of oxycodone

**Q.** What about the duration of action [2] of the same compound?
**A.** ~24 h

**Q.** What about the “time of absorption following oral administration (rapidly absorbed)” value [5] of the same compound?
**A.** ≤ 1 h

**Q.** And the oral bioavailability ([5]; oral administration)?
**A.** 5-40%

**Q.** Which results are given for `COc1ccc2c3c1O[C@H]1C(=O)CC[C@@]4(O)[C@@H](C2)N(C)CC[C@]314` [oxycodone]?
**A.** equianalgesic calculated dose [1]: 13.5 mg; extent and speed of onset of induced respiratory depression [6]: dose dependent and greater than an equivalent dose of morphine
